| Structure (SMILES) | melting point [°C] |
| --- | --- |
| CCCSc1ncc(C[C@H](NC(=O)CCC)C(=O)O)n1Cc1ccccc1Cl [Example 1, 3-[(2-Chlorophenyl)methyl]-2-propylthio-N-butyrylhistidine] | 178 to 181 |
| CCCCc1nc2cc(Br)cc(C(=O)O)c2n1Cc1ccccc1Cl [Example 4, 5-Bromo-2-n-butyl-1-(2-chlorophenyl)methyl-1H-benzimidazole-7-carboxylic Acid] | 254 to 255 |

Reference: US20020058686A1, “Medicament” (SmithKline Beecham p.l.c., priority 1990, published 2002)
